Key:
Type in all cases: cell-based
[1] = tested on: corneal barrier of the microfluidic in vitro cornea device (epithelial, fibroblast, endothelial triculture); test: FSS permeability of the in vitro cornea device after trypan blue exposure; conditions: trypan blue injected into TFEp channel at 3 μL/min for 4 min, incubated at 37° C. for 15 min; then FSS injected into TFEp channel
Protocol: (§1) In some embodiments, all channels of the device can be coated with human fibronectin to facilitate cellular attachment. For example, primary human corneal fibroblasts can be seeded on Day 0. Fibroblasts can be harvested, concentrated to 1×10^7 cells/mL and injected into the stromal chamber via a remote head syringe pump at 5 μL/min until cells are homogenously distributed. Devices can then be incubated at 37° C., 5% CO2 for 4 hours to allow for attachment. Media can be subsequently refreshed every 24 hours. Primary human corneal epithelial cells can be seeded into the TFEp circulation channel on Day 3. […]
(§2) Viability can be assessed on-chip as an endpoint for epithelial, fibroblast, and endothelial cells. Devices are prepared for viability quantitation by incubation with calcein AM and ethidium homodimer in PBS. After rinsing the cells with PBS, fluorescent images are taken via microscope, and the data was analyzed to determine cornea triculture viability (sec, FIG. 5A). […]
Following exposure, FSS can be injected into the TFEp channel and permeability assayed. […] Samples can be taken from cell-laden channels (individually or combined) and placed in a low volume, white walled […] plate for luminescence analysis using a plate reader. […] The increase in AK release in arbitrary luminescence units compares the toxic exposure of trypan blue to positive and negative controls. […]

[2] = tested on: cells of the microfluidic in vitro cornea device; test: Cytotoxicity by adenylate kinase release (luminescence) from cell-laden channels; conditions: trypan blue exposure; compared with positive control (lysis buffer) and negative control (media only)
Protocol: as §1, §2
Following exposure, FSS can be injected into the TFEp channel and permeability assayed. […] Samples can be taken from cell-laden channels (individually or combined) and placed in a low volume, white walled […] plate for luminescence analysis using a plate reader. […] The increase in AK release in arbitrary luminescence units compares the toxic exposure of trypan blue to positive and negative controls.

[3] = tested on: corneal barrier of the microfluidic in vitro cornea device; test: Morphological observation of the chambers after trypan blue exposure; conditions: trypan blue injected into TFEp channel at 3 μL/min for 4 min, incubated at 37° C. for 15 min; observed at any chamber

With `Cc1cc(-c2ccc(/N=N/c3c(S(=O)(=O)O)cc4cc(S(=O)(=O)O)cc(N)c4c3O)c(C)c2)ccc1/N=N/c1c(S(=O)(=O)O)cc2cc(S(=O)(=O)O)cc(N)c2c1O` [trypan blue] the “Permeability in trypan blue treated devices compared to controls” value [1] was 10 fold, the “Increase in adenylate kinase release” value [2] was 1.5 fold and the “Morphological effects of exposure” value [3] was “evidence of barrier degradation (e.g., cell death and detachment) and apoptosis”.
